The values below come from patent US20240082342A1, “PEPTIDE THERAPEUTICS FOR INCREASING LUNG CELL VIABILITY” (BOARD OF REGENTS, THE UNIVERSITY OF TEXAS SYSTEM, priority 2018, published 2024).

Entries after “also recorded” stand apart in the source; their conditions may differ.

Assay [1] concerns A2Cs and lungs of WT mice with CLP injury. Description: Cecal ligation puncture (CLP) sepsis-induced ALI in WT mice. It is filed as in vivo, mouse. As to the method:
This model was described in detail in publication of the present inventor and colleagues, Gao, R et al., Am. J. Physiol. Mol. Physiol, 2015, 308:L847-L853.
WT mice were injected IP with vehicle, 1.5 mg/kg of CSP or control peptide (CP) 24 h after CLP injury. Sham-operated mice served as controls. Total RNA isolated from the lungs of these mice 72 h after CLP was quantitated for IL-17A mRNA by real-time PCR.
A2Cs were isolated from the lungs of these mice 72 h after CLP, and immunoblotted to assess changes in PAI-1, p53 and caspase-3 activation. All were increased by 72 h during CLP injury.
Mice were injected IP with CSP or control peptide (CP) 24 h after CLP injury. A2Cs isolated from these mice 72 h after CLP injury were immunoblotted for caveolin-1 and β-actin. Lysates of A2Cs from WT mice exposed to the above conditions were immunoprecipitated (IP) for PP2A-C and immunoblotted (IB) for caveolin-1 (Cav1) to assess their interaction.
Mice treated with or without CSP or CP 24 h after CLP injury were euthanized 72 h later and. lung tissues subjected to H&E staining to assess changes in lung inflammation. Lung homogenates and BAL fluids were analyzed for myeloperoxidase (MPO) to access PMN accumulation.
Mice were IP injected with CSP, CP or vehicle 24 h after CLP injury. Total RNA isolated from A2Cs of WT mice with or without CLP, CLP+CSP or CLP+CP 72 h after CLP induced ALI was reverse transcribed and subjected to real time PCR.
A2Cs isolated from mice with CLP, CLP+CSP or CLP+CP were immunoblotted for SP-C, thyroid transcription factor-1 (TTF-1) and β-actin. TTF-1 controls transcription of SP-C.
A2Cs isolated from mice 72 h after IP injection with CSP or CP alone without CLP injury and the lysates were immunoblotted for changes in SP-C expression. Lysates of A2Cs from uninjured (sham-operated) or CLP mice were also used for comparison.

Assay [2] deals with AECs from nL overexpressing CAV1, p53 or PAI-1. Description: AECs transduced with Ad-CAV1, Ad-p53 or Ad-PAI-1. It is filed as cell-based, human. On the procedure: Expression of CAV1, p53, or PAI-1 in AECs. AECs isolated from nL were separately transduced with Ad-CAV1 or Ad-p53 or Ad-PAI-1. AECs transduced with Ad-Ev were used as controls. In a separate experiment, AECs from nL in culture dishes were treated with Lv-p53 or Lv-PAI-1 shRNA to suppress its baseline expression before treating these cells with CSE. Naive AECs and AECs exposed to non-specific control shRNA was used as controls.

In the case of “DGIWKASFTTFTVTKYWFYR (listed as Homo sapiens) [CSP, 20 residue caveolin-1 scaffolding domain peptide]”, the “IL-17A in lung tissues” value in assay [1] (1.5 mg/kg IP 24 h after CLP, 72 h) was “suppressed sepsis induced IL-17A”. The “miR-34a expression in A2Cs (real time PCR, normalized to U6)” value in assay [1] (72 h after CLP) is recorded as “significantly reduced”. In addition, in assay [1] (IP 24 h after CLP, 72 h), the “A2C apoptosis, p53 and PAI-1 expression” value is “concurrent inhibition of A2C apoptosis and p53 and PAI-1 expression”; the “A2C caveolin-1 interaction with PP2A-C (IP/IB)” value is given as “inhibited the A2C caveolin-1 interaction with PP2A-C”; the “accumulation of PMN (MPO, H&E)” value is “significantly inhibited accumulation of PMN”. In addition, the “SP-C expression by A2Cs” value in assay [1] (normal lungs, without CLP injury, 72 h after IP) is given as “induced SP-C expression”. The “SP-C expression by A2Cs” value in assay [1] (sepsis-induced ALI) is “induction of SP-C expression”. Further, the “inhibition of miR-34a in A2Cs” value in assay [1] (vs CLP or CLP+CP, 3 days after injury) stood at 7 fold.
Turning to “FTTFTVT (listed as Homo sapiens) [CSP7, heptapeptide fragment of the caveolin-1 scaffolding domain peptide CSP]”, in assay [2] (Ad-CAV1 transduced AECs), the “MUC5AC, HDAC6, FOXA3, LC3, FOXA2, acetylated alpha-tubulin; mucus hypersecretion and cilia disassembly” value was “can mitigate the mucus hypersecretion and cilia disassembly; also recorded: reduced CAV1-induced MUC5AC, HDAC6, FOXA3, and LC3 while restoring FOXA2 and acetylated alpha-tubulin”; the “p53 and PAI-1 expression” value was “reduced the expression of p53 and PAI-1”. Moreover, the “MUC5AC, HDAC6, FOXA3, p53, LC3, acetylated alpha-tubulin” value in assay [2] (Ad-PAI-1 transduced AECs) is “reversed”. Further, the “MUC5AC, acetylated alpha-tubulin, FOXA2, CAV1, p53, PAI-1” value in assay [2] (Ad-p53 transduced AECs) is “reduced MUC5AC and restored acetylated alpha-tubulin and FOXA2, while inhibiting CAV1, p53, and PAI-1”.
